The values that follow come from article PMC8874959 (Viruses, 2022).

Experiment [1] has as its system SARS-CoV-2 D614G.
The test system of experiment [2] is SARS-CoV-2 D614G. The source holds these as a separate data set.

Usually EC50 stands for the concentration needed to bring the measured effect to its halfway point. The low end stands for an effect from little substance, the high end for a need for much substance. A word on the EC90: it is the concentration at which the effect reaches the 90% level. Higher therefore signals a need for much substance.

Where two headings read alike, the source gives them in different places.

In experiment [1], `OC(c1cc(C(F)(F)F)nc2c(C(F)(F)F)cccc12)C1CCCCN1` (centres unmarked) [Mefloquine] yielded a half-maximal effective concentration (EC50) of 600 ± 30 nM.
Take `CCN(CC)CCCC(C)Nc1ccnc2cc(Cl)ccc12` (centres unmarked) [Chloroquine]: in experiment [2], the EC50 is over 10000 nM and the EC90 is over 10000 nM. In experiment [1], this molecule came in with an EC50 of 1100 ± 70 nM and an EC90 of 3500 ± 800 nM.
